Results on six compounds are retold here after patent US20210330611A1, “THERAPY FOR NEUROLOGICAL DISEASES/DISORDERS” (priority 2020, published 2021).

pIC50: −log10 of the molar value. Counter-ions that a name gives are not always drawn. Like-named read-outs stand apart in the source and are kept apart here. Where a SMILES comes first, the peptide text is derived from it. Bridges are numbered along the chain shown (N, C = ends). [ ]: non-standard residue; d: D form. The star is where a group is joined. Ileψ(thiazoline)Cys = CC[C@H](C)[C@H](N)C1=N[C@H](C(=O)*)CS1; dOrn = NCCC[C@@H](N)C(=O)O Where only a bound is given, the exact number is not on record here.

Data set [1] deals with fibrin-induced microglia activation. Kind of data set: Image-based assay of fibrin-induced microglia activation (HTS and dose response). Format: cell-based, rat. Particulars: for pIC50 / IC50 / inhibition at 10 µM: Rattus norvegicus, Microglia; for pIC50: read-out: Fibrin IC50; for inhibition at 10 µM: read-out: Fibrin % inhibition.
The test system of data set [2] is LPS-induced microglia activation. Nature of the data set: Image-based assay of LPS-induced microglia activation (HTS and dose response). Format: cell-based, rat. Particulars: Rattus norvegicus, Microglia; for pIC50: read-out: LPS IC50; for inhibition at 10 µM: read-out: LPS % inhibition.
Data set [3] concerns fibrin- and LPS-induced microglia activation. Kind of data set: cells. Format: cell-based, rat. Particulars: for inhibition at 10 µM: Rattus norvegicus.
Data set [4] relates to primary rat microglia. Particulars: rat.
Data set [5] deals with primary rat microglia. To be noted: rat. This is another data set of the same source.
Data set [6] can be described thus: in vitro. Particulars: rat, Cell Toxicity IC50 (uM) [cFib assay].
Data set [7] can be described thus: in vitro. Particulars: rat.
The test system of data set [8] is primary rat microglia. Nature of the data set: Cell toxicity (dead cells, size <150 μm2) in LPS assay. Particulars: for LPS % cell toxicity: primary microglia HTS, LPS stimulation, decreased size (<150 μm^2) as marker of toxicity; for IC50: read-out: Cell Toxicity IC50 (uM) [LPS assay], LPS assay.
Data set [9] has as its system primary rat microglia. Kind of data set: Cell toxicity (dead cells, size <150 μm2) in coated fibrin (cFib) assay.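 On Fibrin % cell toxicity: share of dead cells sized under 150 µm2 at 10 µM in fibrin-stimulated microglia HTS.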 Particulars: primary microglia HTS.
[10] abbreviates: 48 h, Table 1, dose response 0.001-20 μM, triplicates, primary rat microglia, 48 h.
Where [11] appears, read: dose response, fibrin-induced microglia activation.
Setting [12] is: fibrin-induced microglia activation, dose response, read-out: Fibrin IC50 (uM) (Suppl. Table 7).
Setting [13] is: primary microglia HTS, fibrin stimulation, increased cell size (>800 μm^2) as marker of activation.
Setting [14] is: 48 h, primary microglia HTS, LPS stimulation, increased cell size (>800 μm^2) as marker of activation.
[15] abbreviates: LPS-induced microglia activation, dose response, read-out: LPS IC50 (uM) (Suppl. Table 7).
[16] abbreviates: dose response, LPS-induced microglia activation.
The mark [17] stands for this setting: HTS of 1907 compounds, quadrant by fibrin and LPS inhibition.
Setting [18] is: Microglia, HTS hit classification, read-out: Hit.
The mark [19] stands for this setting: hit classification in microglia HTS, read-out: Cherry-picked Hit (Suppl. Table 7).
Setting [20] is: quadrant by fibrin and LPS inhibition in HTS of 1907 compounds.
[21] abbreviates: primary microglia HTS, fibrin stimulation, compounds at 10 μM.
Where [22] appears, read: primary microglia HTS, LPS stimulation, compounds at 10 μM.
The mark [23] stands for this setting: classification by fibrin and LPS inhibition, HTS at 10 μM.
Where [24] appears, read: fibrin stimulation, decreased size (<150 μm^2) as marker of toxicity.
Setting [25] is: quadrant by fibrin and LPS inhibition, HTS at 10 μM.
Where [26] appears, read: fibrin assay, dead cells (size <150 μm2).

In general, pIC50 refers to the negative decadic logarithm of the IC50, by convention in mol/L. As a reminder, the IC50 is the point on the concentration scale where inhibition reaches its midpoint. On to `C1CCC(C(CC2CCCCN2)C2CCCCC2)CC1` (stereo not shown) [Perhexiline maleate, reference compound], for which the pIC50 in data set [1] (setting [10]) was 5.10; in [1] (setting [11]), 5.10; in data set [2] (setting [10]) it was 5.52; in [2] (setting [16]) it was 5.52; in the data set “in vitro [7]”, 4.96. The IC50 in [1] (setting [12]) was determined as 8 µM; in data set [2] (setting [15]), 3 µM; in the data set “in vitro [6]” (cFib assay), 20 µM. Moreover, the inhibition at 10 µM in data set [1] (setting [13]) is 99%; in [2] (setting [14]), 123%; in [3] (setting [18]), greater than 50%; in data set [3] (setting [19]), greater than 50%. Besides, the “Quadrant (FIG. 5b)” value was “Q2” in data set [3] (setting [17]); “Q2” in data set [3] (Table 1, screen at 10 μM); “Q2” in [3] (setting [20]). In addition, in the data set with primary rat microglia [4], the “Fibrin % cell toxicity” value is given as 3%. The “LPS % cell toxicity” value with primary rat microglia [5] is 69%.
With `CO[C@H]1C[C@H](O[C@@H]2/C(C)=C/C[C@@H]3C[C@@H](C[C@]4(CC[C@H](C)[C@@H](C5CCCCC5)O4)O3)OC(=O)[C@@H]3C=C(C)/C(=N/O)[C@H]4OC/C(=C\C=C\[C@@H]2C)[C@]43O)O[C@@H](C)[C@@H]1O` [Selamectin, reference compound], in data set [1], the “Fibrin Selectivity” value was 3. The “Fibrin Selectivity (LOG10)” value in data set [1] is reported as 0.51. The pIC50 in data set [1] (48 h) is 5.22; in data set [2] (48 h), less than 4.70; in “in vitro [7]”, less than 4.70. For the same compound, the inhibition at 10 µM in [1] is 51%; in data set [2] (48 h), 42%; in data set [3] (Microglia, read-out: Cherry-picked Hit (Suppl. Table 7)) it was greater than 50%; in data set [3] (Microglia, read-out: Hit) it was greater than 50%. Also, the IC50 in data set [1] (read-out: Fibrin IC50 (uM)) is 6 µM; in [1] (read-out: Fibrin IC50 (uM) (Suppl. Table 7)), 6 µM; in [2] (read-out: LPS IC50 (uM)), greater than 20 µM; in [2] (read-out: LPS IC50 (uM) (Suppl. Table 7)), greater than 20 µM; in the data set “in vitro [6]”, greater than 20 µM. In addition, the “Quadrant (FIG. 5b)” value in data set [3] is “Q3”. Besides, in the data set on primary rat microglia [4], the “Fibrin % cell toxicity” value worked out at 1%. In the data set with primary rat microglia [5], the “LPS % cell toxicity” value worked out at 1%.
Consider `CC(=O)OCC(=O)[C@@]1(OC(C)=O)[C@@H](C)C[C@H]2[C@@H]3C[C@H](F)C4=CC(=O)C=C[C@]4(C)[C@@]3(F)[C@@H](O)C[C@@]21C` [Diflorasone diacetate, reference compound], for which the “Fibrin Selectivity” value in data set [1] came out at 2188; in [1] (fibrin vs LPS, Table 6) it was 2188. The “Fibrin Selectivity (LOG10)” value in [1] is listed as 3.34; in data set [1] (fibrin vs LPS, LOG10, Table 6), 3.34. The negative-log IC50 (pIC50) in data set [1] (setting [10]) is 8.00; in [1] (setting [11]), 8.00; in data set [2] (setting [10]) it was less than 4.70; in [2] (setting [16]) it was less than 4.70; in the data set “in vitro [7]”, less than 4.70. Also, the half-inhibitory concentration (IC50) in data set [1] (Table 3, read-out: Fibrin IC50 (uM) (Suppl. Table 7)) is 0.01 µM; in data set [1] (Table 6, read-out: Fibrin IC50 (uM) (Suppl. Table 7)), 0.01 µM; in [1] (setting [12]), 0.01 µM; in [2] (setting [15]), greater than 20 µM; in data set [2] (Table 3, read-out: LPS IC50 (uM) (Suppl. Table 7)) it was greater than 20 µM; in data set [2] (Table 6, read-out: LPS IC50 (uM) (Suppl. Table 7)), greater than 20 µM. The half-inhibitory concentration (IC50) is greater than 20 µM in “in vitro [6]” (Table 3); greater than 20 µM in “in vitro [6]” (cFib assay); greater than 20 µM in the data set “in vitro [6]” (cFib assay, Table 6); greater than 20 µM with primary rat microglia [8]; greater than 20 µM in the data set on primary rat microglia [8] (Table 6). The inhibition at 10 µM in [1] (setting [21]) was 42%; in data set [1] (setting [13]), 76%; in data set [2] (setting [14]) it was 39%; in [2] (setting [22]), 31%; in data set [3] (Microglia, Table 3, read-out: Cherry-picked Hit (Suppl. Table 7)) it was greater than 50%; in data set [3] (setting [18]), greater than 50%. The “Quadrant (FIG. 5b)” value in data set [3] (setting [17]) was “Q3”; in data set [3] (Table 1, screen at 10 μM), “Q3”; in data set [3] (Table 3, screen at 10 μM) it was “Q3”; in [3] (setting [23]) it was “Q4”; in [3] (microglia HTS, Table 6), “Q3”; in [3] (setting [20]) it was “Q3”. The results for the “LPS % cell toxicity” value in the data set on primary rat microglia [5] and with primary rat microglia [8] were 0% and 1%, respectively. Moreover, the “Fibrin % cell toxicity” value was 1% in the data set on primary rat microglia [9] (fibrin assay, dead cells (size <150 μm2), compounds at 10 μM) and 1% in the data set with primary rat microglia [9] (setting [24]).
With `C#C[C@]1(O)CC[C@H]2[C@@H]3CCc4cc(O)ccc4[C@H]3CC[C@@]21C` [Ethinyl estradiol, reference compound], the pIC50 (in data set [1] (setting [10]); in data set [1] (setting [11]); in [2] (setting [10]); in [2] (setting [16]); in the data set “in vitro [7]”) was less than 4.70 throughout. Also, the IC50 (in data set [1] (setting [12]); in data set [2] (setting [15]); in “in vitro [6]”) was greater than 20 µM in each case. Also, the inhibition at 10 µM is 9% in [1] (setting [21]); 58% in [1] (setting [13]); 37% in [2] (setting [14]); 5% in [2] (setting [22]); greater than 50% in data set [3] (setting [18]); greater than 50% in [3] (setting [19]). Further, the “Quadrant (FIG. 5b)” value in [3] (setting [17]) was “Q3”; in data set [3] (Table 1, screen at 10 μM), “Q3”; in [3] (setting [23]), “Q4”; in [3] (setting [20]), “Q3”. The “Fibrin % cell toxicity” value in the data set on primary rat microglia [4] was 1%.
Take `CCN1CCCC1CNC(=O)c1cc(S(=O)(=O)CC)c(N)cc1OC` (stereo not shown) [Amisulpride, reference compound]: the pIC50 in [1] (setting [10]) is 4.70; in [1] (setting [11]), 4.70; in [2] (setting [10]), less than 4.70; in [2] (setting [16]), less than 4.70; in the data set “in vitro [7]”, less than 4.70. The IC50 was 20 µM in data set [1] (setting [12]), greater than 20 µM in [2] (setting [15]) and greater than 20 µM in “in vitro [6]” (cFib assay). Also, the inhibition at 10 µM was -5% in data set [1] (setting [21]); 54% in data set [1] (setting [13]); 31% in data set [2] (setting [14]); 12% in data set [2] (setting [22]); greater than 50% in data set [3] (setting [18]); greater than 50% in data set [3] (setting [19]). The “Quadrant (FIG. 5b)” value was “Q3” in data set [3] (setting [17]); “Q3” in data set [3] (Table 1, screen at 10 μM); “Q3” in data set [3] (setting [20]); “Q4” in data set [3] (setting [25]). The “LPS % cell toxicity” value in the data set with primary rat microglia [5] worked out at 0%; with primary rat microglia [8], 1%. Also, the “Fibrin % cell toxicity” value is listed as 1% in the data set with primary rat microglia [9] (setting [26]) and 2% in the data set with primary rat microglia [9] (setting [24]).
Consider `CC[C@H](C)[C@H](N)C1=N[C@H](C(=O)N[C@@H](CC(C)C)C(=O)N[C@H](CCC(=O)O)C(=O)N[C@H](C(=O)N[C@H]2CCCCNC(=O)[C@H](CC(N)=O)NC(=O)[C@@H](CC(=O)O)NC(=O)[C@H](Cc3cnc[nH]3)NC(=O)[C@@H](Cc3ccccc3)NC(=O)[C@H]([C@@H](C)CC)NC(=O)[C@@H](CCCN)NC2=O)[C@@H](C)CC)CS1` [Bacitracin, reference compound] ({Ileψ(thiazoline)Cys}-L[dE]IK[dOrn]I[dF]H[dD]N; lactam 4-C), for which the pIC50 (in data set [1] (setting [10]); in data set [1] (setting [11]); in [2] (setting [10]); in [2] (setting [16]); in the data set “in vitro [7]”) was less than 4.70 each time. Moreover, the half-inhibitory concentration (IC50) (in data set [1] (setting [12]); in [2] (setting [15]); in the data set “in vitro [6]” (cFib assay)) was greater than 20 µM in each case. For the same compound, the inhibition at 10 µM in [1] (setting [21]) is -7%; in [1] (setting [13]) it was 82%; in [2] (setting [14]), 21%; in data set [2] (setting [22]), 6%; in data set [3] (setting [18]) it was greater than 50%; in data set [3] (setting [19]), greater than 50%. The “Quadrant (FIG. 5b)” value is on record as “Q3” in [3] (setting [17]); “Q3” in [3] (Table 1, screen at 10 μM); “Q3” in data set [3] (setting [20]); “Q4” in [3] (setting [25]). The “LPS % cell toxicity” value with primary rat microglia [5] is reported as 1%; with primary rat microglia [8], 0%. The “Fibrin % cell toxicity” value in the data set with primary rat microglia [9] (setting [26]) is on record as 0%; in the data set with primary rat microglia [9] (setting [24]), 1%.
